Measurements taken from US10786475B2, “Method for preventing, treating, or improving fatty liver by administering effective amounts of azelaic acid to a subject” (Korea University Research and Business Foundation, priority 2018, dated 2020).

What was measured:
PPARα = PPARα gene expression by qPCR in Hepa1c1c-7 cells; type: cell-based, mouse; conditions: 50 μM AzA, 2 hours, compared with control group
Procedure: To confirm the change in PPARα gene expression level by an AzA, Hepa1c1c-7 cells were seeded onto a 24-well plate at 5×10^5 cells/mL, cultured for 24 hours, and treated with 50 μM of AzA for 2 hours. Subsequently, RNA was extracted, and cDNA synthesis was performed from the extracted RNA using a ReverTra Ace® qPCR RT kit (TOYOBO, Osaka, Japan). More specifically, to increase PCR efficiency, the extracted RNA was treated at 65° C. for 5 minutes, and the resulting product was immediately stored on ice. Subsequently, a total of 8 μL of a reaction mixture was prepared with 2 μL of a 4×DNA Master Mix containing a gDNA remover, 0.5 μg of RNA and distilled water (nuclease-free water), and reacted at 37° C. for 5 minutes. Subsequently, a 5×RT Master mix was added to the reaction mixture, reacted at 37° C. for 5 minutes, at 50° C. for 5 minutes and at 98° C. for 5 minutes to synthesize cDNA. The cDNA synthesized by the above method was subjected to qPCR using a THUNDERBIRD SYBR qPCR Mix (TOYOBO) and an iQ5 iCycler system (Bio-Rad, California, USA) according to a method known to those of ordinary skill in the art. More particularly, amplification was performed with initial denaturation at 95° C. for 4.5 minutes, and 40 cycles of additional denaturation at the same temperature for 10 seconds, annealing and cooling at 55 to 60° C. for 30 seconds, and elongation at 68° C. for 20 seconds. […]

Hepa1c1c-7 cells = experiment: MTT cytotoxicity assay in Hepa1c1c-7 cells; type: cell-based, mouse; conditions: 0 to 500 μM AzA, 24 hours, compared with control group
LPS mouse = experiment: LPS-induced inflammation in C57BL/6J male mouse, liver gene expression; type: in vivo; conditions: AzA 100 mg/kg, LPS 10 mg/kg intraperitoneally, liver 16 hours after LPS
Procedure: Eight-week-old C57BL/6J male […] were purchased from Samtako (Gyeonggi-do, Korea). All experiments were carried out according to protocols approved by the Animal Experiment Committee of Korea University (Protocol No. KUIACUC-20090420-4). Mice were maintained under a 12-hour photoperiod at 21 to 25° C. and relative humidity of 50% to 60%. In normal groups and LPS-induced groups, 100 μL of deionized water was administered to each mouse using an oral sonde for 4 days, and 100 μL of LPS was intraperitoneally injected at a dose of 10 mg/kg one hour after the administration with deionized water on the last day, Day 4. In a group into which LPS was administered after the AzA administration, each mouse was orally administered 100 μL of AzA at a dose of 100 mg/kg for 4 days, and intraperitoneally injected with 100 μL of 10 mg/kg LPS one hour after the AzA administration on the last day, Day 4. Sixteen hours after the LPS intraperitoneal injection, the mice were anesthetized with avertin, and dissected to extract liver tissue. The liver tissue was obtained, immediately stored in liquid nitrogen, and then stored at −80° C.
1 μg of RNA extracted from the stored liver tissue was used to synthesize cDNA using a ReverTra Ace® qPCR RT kit (TOYOBO, Osaka, Japan). […]

mice fed a high-fat diet = experiment: Comparison of AzA-added and barley-added high-fat diets in mice; type: in vivo, mouse; conditions: 6 weeks
Procedure: A diet, in which an AzA (0.5 g/kg diet) or 10% (w/w) barley was added to a high-fat diet, was administered to mice for 6 weeks.

[1] = tested on: mouse primary hepatocytes; experiment: Fatty acid decomposition gene markers in mouse primary hepatocyte; type: cell-based
Procedure: To reconfirm the liver tissue lipolytic effect of an AzA, an additional experiment was performed using a mouse primary hepatocyte. […] Therefore, it was reconfirmed that an AzA stimulates fatty acid oxidation, thereby treating/preventing a fatty liver lesion.

[2] = AzA (0.5 g/kg diet) added to high-fat diet
[3] = AzA (0.5 g/kg diet) or 10% (w/w) barley added to high-fat diet, between groups

**Q.** What does the source list for O=C(O)CCCCCCCC(=O)O [AzA, nonanedioic acid]?
**A.** PPARα expression (PPARα): significant increase; cytotoxicity (MTT assay) (Hepa1c1c-7 cells): toxicity was not exhibited at every concentration; gene expression levels of inflammatory cytokines IL-6 and TNF-α in liver tissue (LPS mouse): tendency of reduction in inflammatory responses; ALT concentration (hepatotoxicity marker) (mice fed a high-fat diet; [2]): decreased; LDL cholesterol concentration (mice fed a high-fat diet; [2]): significantly decreased; triglyceride concentration in liver tissue (fatty liver lesion marker) (mice fed a high-fat diet; [2]): significantly decreased; HDL cholesterol concentration (mice fed a high-fat diet; [3]): no differences; fasting blood glucose concentration (mice fed a high-fat diet; [3]): no differences; total cholesterol concentration (mice fed a high-fat diet; [3]): no differences; triglyceride concentration (blood) (mice fed a high-fat diet; [3]): no differences; body weight (mice fed a high-fat diet; AzA (0.5 g/kg diet) or 10% (w/w) barley added to high-fat diet, versus high-fat diet group): significantly decreased; Acox1 gene marker [1]: significantly increases; Cpt1a gene marker [1]: significantly increases; Ppara gene marker [1]: significantly increases
